Source: patent US20060205756A1, “Antitussives” (Kyowa Hakko Kogyo Co., Ltd., priority 2003, published 2006)

Test system: citric acid-induced cough
Assay: Citric acid-induced cough model of guinea pig
Format: in vivo
Details: for Numbers of the cough reflex by inhalation of citric acid: 1 hour before citric acid inhalation (0.5 mol/L, 2 min), coughs counted during 15 minutes, mean ± standard error; for Suppression of cough reflex as compared with the solvent group: Student's t-test versus solvent-administered group
Text: Antitussive activity is able to be evaluated by suppression of the cough induced by inhalation of a substance such as citric acid, capsaicin, etc. It is also possible to evaluate antitussive activity by suppression of the cough induced by a direct infusion of citric acid or capsaicin into airway [Nippon Yakurigaku Zasshi, volume 120, page 237 (2002)]. It is further possible to evaluate antitussive activity by suppression of the cough by a physical stimulation, for example, contact stimulation of throat or airway [Eur. J. Phazmacol., volume 329, page 93 (1997)].
Evaluation Using the Citric Acid-Induced Cough Model of Guinea Pig
Guinea pigs (Hartley strain; male; six weeks age; Nippon SLC) were used for the test. Induction of cough reflex by citric acid was conducted in a similar manner to the method by Hosoe, et al. [Yakuri to Rinsho, volume 5, page 2147 (1995)]. Thus, the guinea pig was fixed in a double chamber plethysmograph box (manufactured by Buxco Electronics) for guinea pigs and ventilation was conducted at about 1.6 L/minute. A physiological saline containing 0.5 mol/L of citric acid (manufactured by Wako Pure Chemical) was sprayed for 2 minutes from the upper part of the box of the head side using an ultrasonic nebulizer (NE-U12 manufactured by Omron) and discharged from the side drain. The cough reflex was measured by the generated cough sound and the respiration waveform. Numbers of coughs generated during 15 minutes from initiation of inhalation of citric acid were counted. Compound 1, Compound 2 and codeine phosphate (manufactured by Shionogi) each was suspended in 0.5 w/v % methyl cellulose 400 cP (manufactured by Wako Pure Chemical) and orally administered 1 hour before the initiation of the inhalation of citric acid. Incidentally, with regard to the Compound 1 and Compound 2, each 2, mg thereof was suspended in 1 mL of 0.5 w/v % methyl cellulose 400 cP while, with regard to codeine phosphate, 4 mg thereof was suspended in 1 mL of 0.5 w/v % methyl cellulose 400 cP and the suspension was administered at 5 mL per kg body weight. Numbers of the cough reflex by inhalation of citric acid in the group administered with the solvent were 7.9±1.8, while those in the group administered with 10 mg/kg of Compound 1 were 2.0±1.0. In this test, seven guinea pigs were used for the group administered with the solvent and for the group administered with Compound 1, respectively. Numbers of the cough reflex were expressed as the mean value ±standard error. […] Numbers of the cough reflex by inhalation of citric acid in the group administered with 10 mg/kg of Compound 2 were 4.3±1.0, while those in the group administered with the solvent were 10.3±1.8. In this test, twelve guinea pigs were used for the group administered with the solvent and for the group administered with Compound 2, respectively. Numbers of the cough reflex were expressed as the mean value±standard error. […] Numbers of the cough reflex in the group administered with 20 mg/kg of codeine phosphate which is a central antitussive were 1.8±0.5, while those in the group administered with the solvent were 6.8±1.4. In this test, six guinea pigs were used for the group administered with the solvent and for the group administered with codeine phosphate. Numbers of the cough reflex were expressed as the mean value±standard error.

Structure (SMILES) | Numbers of the cough reflex by inhalation of citric acid (10 mg/kg oral) | Suppression of cough reflex as compared with the solvent group (10 mg/kg oral) | Numbers of the cough reflex by inhalation of citric acid (20 mg/kg oral)
C[C@](O)(C(=O)Nc1cccc2c1C(=O)c1sccc1CS2(=O)=O)C(F)(F)F [Compound 1] | 2.0±1.0 | significant suppressive response | 
CC(C)(O)C(=O)Nc1cccc2c1C(=O)c1sccc1CS2(=O)=O [Compound 2] | 4.3±1.0 | significant suppressive response | 
COc1ccc2c3c1O[C@H]1[C@@H](O)C=C[C@H]4[C@@H](C2)N(C)CC[C@@]341 [codeine phosphate, reference compound] |  |  | 1.8±0.5
